Assay results published in patent publication US20230053540A1, “TREATMENT OF LIVER INJURY” (Massachusetts Institute of Technology, priority 2019, published 2023).

System: hepatocytes
Assay: Seq-Well scRNA-Seq of hepatocytes after APAP overdose (signature scores, DEG vs untreated)
Format: in vivo, mouse

CC(=O)Nc1ccc(O)cc1 [APAP, acetaminophen]
Slc25a10 avg_logFC (A96 vs untreated (UT)): 0.2508
Slc25a10 pct.1 (A96 vs untreated (UT)): 0.701
Slc25a13 avg_logFC (A96 vs untreated (UT)): 0.2573
Slc25a13 pct.1 (A96 vs untreated (UT)): 0.786
Slc25a20 avg_logFC (A96 vs untreated (UT)): 0.3215
Slc25a20 pct.1 (A96 vs untreated (UT)): 0.671
Slc25a47 avg_logFC (A96 vs untreated (UT)): 0.2777
Slc25a47 pct.1 (A96 vs untreated (UT)): 0.96
Slc27a2 avg_logFC (A96 vs untreated (UT)): 0.3931
Slc27a2 pct.1 (A96 vs untreated (UT)): 0.988
Slc27a5 avg_logFC (A96 vs untreated (UT)): 0.2567
Slc27a5 pct.1 (A96 vs untreated (UT)): 0.958
Slc40a1 avg_logFC (A96 vs untreated (UT)): 0.336
Slc40a1 pct.1 (A96 vs untreated (UT)): 0.551
Slco1a4 avg_logFC (A96 vs untreated (UT)): 0.4652
Slco1a4 pct.1 (A96 vs untreated (UT)): 0.507
Snord13 avg_logFC (A96 vs untreated (UT)): 0.2659
Snord13 pct.1 (A96 vs untreated (UT)): 0.386
Snord118 avg_logFC (A96 vs untreated (UT)): 0.5783
Snord118 pct.1 (A96 vs untreated (UT)): 0.564
St3gal5 avg_logFC (A96 vs untreated (UT)): 0.3862
St3gal5 pct.1 (A96 vs untreated (UT)): 0.71
Sult1a1 avg_logFC (A96 vs untreated (UT)): 0.522
Sult1a1 pct.1 (A96 vs untreated (UT)): 0.881
Sult1d1 avg_logFC (A96 vs untreated (UT)): 0.4421
Sult1d1 pct.1 (A96 vs untreated (UT)): 0.855
Tat avg_logFC (A96 vs untreated (UT)): 0.2529
Tat pct.1 (A96 vs untreated (UT)): 0.981
Tgoln1 avg_logFC (A96 vs untreated (UT)): 0.3801
Tgoln1 pct.1 (A96 vs untreated (UT)): 0.756
Tmbim6 avg_logFC (A96 vs untreated (UT)): 0.2624
Tmbim6 pct.1 (A96 vs untreated (UT)): 0.988
Tmed5 avg_logFC (A96 vs untreated (UT)): 0.3754
Tmed5 pct.1 (A96 vs untreated (UT)): 0.714
Tmem106b avg_logFC (A96 vs untreated (UT)): 0.3285
Tmem106b pct.1 (A96 vs untreated (UT)): 0.727
Tob1 avg_logFC (A96 vs untreated (UT)): 0.3731
Tob1 pct.1 (A96 vs untreated (UT)): 0.649
Trp53inp1 avg_logFC (A96 vs untreated (UT)): 0.3647
Trp53inp1 pct.1 (A96 vs untreated (UT)): 0.551
Tsc22d3 avg_logFC (A96 vs untreated (UT)): 0.3425
Tsc22d3 pct.1 (A96 vs untreated (UT)): 0.534
Ttpa avg_logFC (A96 vs untreated (UT)): 0.6266
Ttpa pct.1 (A96 vs untreated (UT)): 0.98
Ttr avg_logFC (A96 vs untreated (UT)): 0.3459
Ttr pct.1 (A96 vs untreated (UT)): 1
Ubc avg_logFC (A96 vs untreated (UT)): 0.3578
Ubc pct.1 (A96 vs untreated (UT)): 0.968
Ubr3 avg_logFC (A96 vs untreated (UT)): 0.2529
Ubr3 pct.1 (A96 vs untreated (UT)): 0.585
Uhrf1bp1l avg_logFC (A96 vs untreated (UT)): 0.2559
Uhrf1bp1l pct.1 (A96 vs untreated (UT)): 0.415
Upp2 avg_logFC (A96 vs untreated (UT)): −0.2859
Upp2 pct.1 (A96 vs untreated (UT)): 0.545
Uroc1 avg_logFC (A96 vs untreated (UT)): 0.3074
Uroc1 pct.1 (A96 vs untreated (UT)): 0.726
Wbp1l avg_logFC (A96 vs untreated (UT)): 0.3456
Wbp1l pct.1 (A96 vs untreated (UT)): 0.789
Zfp36l1 avg_logFC (A96 vs untreated (UT)): 0.3298
Zfp36l1 pct.1 (A96 vs untreated (UT)): 0.601
Zfp91 avg_logFC (A96 vs untreated (UT)): 0.3741
Zfp91 pct.1 (A96 vs untreated (UT)): 0.693
Zfp683 avg_logFC (A96 vs untreated (UT)): 0.3027
Zfp683 pct.1 (A96 vs untreated (UT)): 0.476
mt-Co1 avg_logFC (A96 vs untreated (UT)): −0.8459
mt-Co1 pct.1 (A96 vs untreated (UT)): 0.983
mt-Co2 avg_logFC (A96 vs untreated (UT)): −1.033
mt-Co2 pct.1 (A96 vs untreated (UT)): 0.313
mt-Co3 avg_logFC (A96 vs untreated (UT)): −1.046
mt-Co3 pct.1 (A96 vs untreated (UT)): 0.213
mt-Cytb avg_logFC (A96 vs untreated (UT)): −0.7105
mt-Cytb pct.1 (A96 vs untreated (UT)): 0.99
mt-Nd1 avg_logFC (A96 vs untreated (UT)): −0.5843
mt-Nd1 pct.1 (A96 vs untreated (UT)): 0.996
mt-Nd2 avg_logFC (A96 vs untreated (UT)): −0.7197
mt-Nd2 pct.1 (A96 vs untreated (UT)): 0.994
mt-Nd4 avg_logFC (A96 vs untreated (UT)): −0.8488
mt-Nd4 pct.1 (A96 vs untreated (UT)): 0.986
mt-Nd5 avg_logFC (A96 vs untreated (UT)): −0.573
mt-Nd5 pct.1 (A96 vs untreated (UT)): 0.964
mt-Rnr1 avg_logFC (A96 vs untreated (UT)): −0.3398
mt-Rnr1 pct.1 (A96 vs untreated (UT)): 1
mt-Rnr2 avg_logFC (A96 vs untreated (UT)): −0.3332
mt-Rnr2 pct.1 (A96 vs untreated (UT)): 1
mt-Tp avg_logFC (A96 vs untreated (UT)): 0.3085
mt-Tp pct.1 (A96 vs untreated (UT)): 0.329
Acaa1b avg_logFC (APAP composite vs UT): −0.8508
Agt avg_logFC (APAP composite vs UT): 0.5205
Ahsg avg_logFC (APAP composite vs UT): 0.2925
Akr1c6 avg_logFC (APAP composite vs UT): −1.586
Ang avg_logFC (APAP composite vs UT): 0.7089
Angptl3 avg_logFC (APAP composite vs UT): 0.7089
Apoa2 avg_logFC (APAP composite vs UT): −0.5455
Apoc1 avg_logFC (APAP composite vs UT): −0.8713
Apoc2 avg_logFC (APAP composite vs UT): 0.7821
Apoe avg_logFC (APAP composite vs UT): −0.4213
Apoh avg_logFC (APAP composite vs UT): 0.4118
Cdo1 avg_logFC (APAP composite vs UT): 0.517
Ces1c avg_logFC (APAP composite vs UT): 0.4668
Chchd1 avg_logFC (APAP composite vs UT): 0.7207
Chchd10 avg_logFC (APAP composite vs UT): 0.7207
Cp avg_logFC (APAP composite vs UT): 0.4362
Cyb5 avg_logFC (APAP composite vs UT): −0.7102
Cyp4a10 avg_logFC (APAP composite vs UT): 1.135
Cyp4a14 avg_logFC (APAP composite vs UT): 1.704
Fabp1 avg_logFC (APAP composite vs UT): −1.016
Fga avg_logFC (APAP composite vs UT): 0.8285
Fgb avg_logFC (APAP composite vs UT): 0.745
Fgg avg_logFC (APAP composite vs UT): 0.6805
Fgl1 avg_logFC (APAP composite vs UT): 0.8649
Fth1 avg_logFC (APAP composite vs UT): 0.3784
Gclc avg_logFC (APAP composite vs UT): 1.903
Gm13775 avg_logFC (APAP composite vs UT): −1.078
Gm15564 avg_logFC (APAP composite vs UT): 1.821
Gm24601 avg_logFC (APAP composite vs UT): 0.9844
Gm26924 avg_logFC (APAP composite vs UT): 1.419
Gpx1 avg_logFC (APAP composite vs UT): −0.7686
Grip2 avg_logFC (APAP composite vs UT): 0.8779
Hbb-bs avg_logFC (APAP composite vs UT): 2.862
Hilpda avg_logFC (APAP composite vs UT): 0.7786
Hmgcs2 avg_logFC (APAP composite vs UT): 0.6293
Hmox1 avg_logFC (APAP composite vs UT): 1.348
Hrg avg_logFC (APAP composite vs UT): 0.5189
Igfbp4 avg_logFC (APAP composite vs UT): 0.4353
Lars2 avg_logFC (APAP composite vs UT): 1.711
Mat1a avg_logFC (APAP composite vs UT): 1
Mfsd2a avg_logFC (APAP composite vs UT): 0.6661
Mt1 avg_logFC (APAP composite vs UT): 2.388
Mt2 avg_logFC (APAP composite vs UT): 2.063
Mup3 avg_logFC (APAP composite vs UT): −0.8062
Mup5 avg_logFC (APAP composite vs UT): −1.371
Mup6 avg_logFC (APAP composite vs UT): −2.032
Mup7 avg_logFC (APAP composite vs UT): −1.116
Mup9 avg_logFC (APAP composite vs UT): −2.004
Mup11 avg_logFC (APAP composite vs UT): −3.214
Mup12 avg_logFC (APAP composite vs UT): −1.27
Mup15 avg_logFC (APAP composite vs UT): −1.316
Mup16 avg_logFC (APAP composite vs UT): −1.602
Mup17 avg_logFC (APAP composite vs UT): −2.354
Mup18 avg_logFC (APAP composite vs UT): −1.727
Mup19 avg_logFC (APAP composite vs UT): −2.396
Mup21 avg_logFC (APAP composite vs UT): −1.008
Ndrg2 avg_logFC (APAP composite vs UT): 0.4122
Nudt7 avg_logFC (APAP composite vs UT): −1.564
Ppl avg_logFC (APAP composite vs UT): 0.8798
Rbp4 avg_logFC (APAP composite vs UT): 0.3014
Retsat avg_logFC (APAP composite vs UT): 0.6813
S100a8 avg_logFC (APAP composite vs UT): 1.128
S100a9 avg_logFC (APAP composite vs UT): 1.343
Saa1 avg_logFC (APAP composite vs UT): −1.078
Selenbp2 avg_logFC (APAP composite vs UT): −1.19
Sephs2 avg_logFC (APAP composite vs UT): 0.89
Sepp1 avg_logFC (APAP composite vs UT): 0.4486
Serpina1a avg_logFC (APAP composite vs UT): −0.6752
Serpina1e avg_logFC (APAP composite vs UT): −0.662
Serpina1d avg_logFC (APAP composite vs UT): −0.494
Slco1a4 avg_logFC (APAP composite vs UT): 0.5526
Snord118 avg_logFC (APAP composite vs UT): 0.6174
Srxn1 avg_logFC (APAP composite vs UT): 1.878
Sult1a1 avg_logFC (APAP composite vs UT): 0.5605
Tnfrsf12a avg_logFC (APAP composite vs UT): 1.118
Ttpa avg_logFC (APAP composite vs UT): 0.6012
Ttr avg_logFC (APAP composite vs UT): −0.5306
mt-Co1 avg_logFC (APAP composite vs UT): −1.433
mt-Co2 avg_logFC (APAP composite vs UT): −1.397
mt-Cytb avg_logFC (APAP composite vs UT): −1.571
mt-Nd1 avg_logFC (APAP composite vs UT): −1.42
mt-Nd2 avg_logFC (APAP composite vs UT): −1.242
mt-Nd4 avg_logFC (APAP composite vs UT): −1.957
mt-Nd5 avg_logFC (APAP composite vs UT): −1.384
mt-Rnr1 avg_logFC (APAP composite vs UT): −0.4854
mt-Rnr2 avg_logFC (APAP composite vs UT): −0.7783
n-R5-8s1 avg_logFC (APAP composite vs UT): 1.253
1-Mar logFC (APAP vs UT): −0.4778
2-Mar logFC (APAP vs UT): −0.5599
1110008F13Rik logFC (APAP vs UT): −0.4553
1600014C10Rik logFC (APAP vs UT): −0.4982
3110043O21Rik logFC (APAP vs UT): 0.2694
8430408G22Rik logFC (APAP vs UT): −0.5021
AA474408 logFC (APAP vs UT): 0.4364
Aadac logFC (APAP vs UT): −0.62
Abca1 logFC (APAP vs UT): 0.7245
Abhd2 logFC (APAP vs UT): 0.4844
Acox1 logFC (APAP vs UT): 0.2752
Acsl4 logFC (APAP vs UT): 0.3147
Acss2 logFC (APAP vs UT): −0.6201
Adh4 logFC (APAP vs UT): −0.5269
Adh5 logFC (APAP vs UT): −0.4914
Adh6-ps1 logFC (APAP vs UT): −0.4185
Adipor2 logFC (APAP vs UT): −0.4738
Agmat logFC (APAP vs UT): −0.4718
Ak3 logFC (APAP vs UT): 0.289
Akr1c14 logFC (APAP vs UT): −0.5186
Akr1c20 logFC (APAP vs UT): −0.5542
Akr1e1 logFC (APAP vs UT): −0.2582
Alas1 logFC (APAP vs UT): −0.4898
Alb logFC (APAP vs UT): 0.4203
Alcam logFC (APAP vs UT): 0.3238
Aldh1a1 logFC (APAP vs UT): −0.4788
Aldh3a2 logFC (APAP vs UT): −0.8342
Aldh8a1 logFC (APAP vs UT): −0.6837
Aox3 logFC (APAP vs UT): −0.3333
